One data set deals with β-fructofuranosidase. The data set is described as follows: Inhibition of the enzyme activity by metal ions. Type of data set: biochemical, Bacillus sp. V230 (FERM BP-5054). The settings on record: one mM metal ion. The procedure: The activity of β-fructofuranosidase according to the present invention is assayed as follows: Add 0.2 ml of an enzyme solution to 5 ml of an aqueous solution (pH 6.0) consisting of 1.0 w/v % sucrose, 20 mM acetate buffer, and 5 mM calcium chloride. Incubate the mixture at 40° C. for 10 min, add the Somogyi copper solution to suspend the reaction, and assay the reducing power by the Somogyi-Nelson's method. As a control, provide an enzyme solution pre-heated to inactivate the enzyme at 100° C. for 10 min, and assay the reducing power similarly as above. One unit activity of the enzyme is defined as the amount of enzyme that increases the reducing power of 2 μmol glucose per minute when assayed on the above assay.
In accordance with the method used in the above assay for the enzyme activity, the influence of pH and temperature on the present β-fructofuranosidase activity was studied in the presence of or in the absence of 5 mM calcium chloride. […] The optimum pH of the enzyme was about 5.5-6.0 when incubated at 40° C. for 10 min both in the presence of and in the absence of calcium ion, while the optimum temperature of the enzyme was about 50° C. in the presence of calcium ion and about 45° C. in the absence of calcium ion when incubated at pH 6.0 for 10 min. The pH stability of the present enzyme was determined by incubating in 50 mM buffers with different pHs at 4° C. for 24 hours, and assaying the residual enzyme activity after adjusting the buffers to pH 6. The thermal stability of the enzyme was determined by incubating in 20 mM acetate buffers (pH 6.0) at different temperatures for an hour, and assaying the residual enzyme activity in each buffer after cooling the buffers. The results of pH and thermal stabilities of the present enzyme were respectively in FIGS. 3 and 4. The pH stability of the enzyme was about 5.0-8.0, and the thermal stability was about 45° C. […] One mM Cu^++, Pb^++, Fe^++, Fe^+++ or Hg^++ inhibited the enzyme activity.
As for `[Cu+2]` [Cu^++], the “Inhibition of the enzyme activity” value is listed as “inhibited”. `[Fe+3]` [Fe^+++]: the “Inhibition of the enzyme activity” value is “inhibited”. For `[Fe+2]` [Fe^++], the “Inhibition of the enzyme activity” value is “inhibited”. Regarding `[Hg+2]` [Hg^++], the “Inhibition of the enzyme activity” value is “inhibited”.

Regarding `[Pb+2]` [Pb^++], the “Inhibition of the enzyme activity” value was “inhibited”.

The next data set relates to β-fructofuranosidase. The data set is described as follows: Substrate specificity (TLC). Type of data set: biochemical, Bacillus sp. V230 (FERM BP-5054). The settings on record: 2 w/v % substrate, 2 units/g substrate, 40° C., pH 5.5, 24 hours. As for the experimental part:
A solution with a final concentration of 2 w/v % raffinose, erlose, stachyose, lactose, xylofructoside, maltose, cellobiose, lactose, inulin or laevan as a substrate was mixed with 2 units/g substrate of a β-fructofuranosidase obtained by the method in Experiment 2, and allowed to react enzymatically at 40° C. and pH 5.5 for 24 hours. The reaction mixture was subjected to thin layer chromatography (hereinafter abbreviated as "TLC") using "KIESEL GEL 60", an aluminum plate, 20×20 cm, commercialized by Merck & Co., Inc., NJ, USA, to confirm whether the enzyme acts on these saccharides. The solvent system used in the TLC consisted of 1-butanol, pyridine, and water (=7:3:1 by volume), and samples were developed once at ambient temperature. The saccharides comprising fructose units as constituent saccharides were colored by spraying a 0.5-N phosphoric acid solution containing 0.2 w/v % naphthoresorcinol and heating at 110° C. for about 5 min, while other saccharides were colored by spraying a methanol solution containing 20 w/v % sulfuric acid and heating at 110° C. for about 10 min.
As for `OC[C@H]1O[C@@H](O[C@H]2[C@H](O)[C@@H](O)C(O)O[C@@H]2CO)[C@H](O)[C@@H](O)[C@@H]1O` (some centres unmarked) [Cellobiose], the “Action of the enzyme on the substrate (release of fructose)” value (from here on “Action of the enzyme on the substrate”) was “does not act on”. Still for that read-out and setting: the result for `OC[C@H]1O[C@@H](O[C@H]2[C@H](O)[C@@H](O)C(O)O[C@@H]2CO)[C@H](O)[C@@H](O)[C@H]1O` (some centres unmarked) [Lactose] reads “does not act on”; that for `OC[C@H]1O[C@H](O[C@H]2[C@H](O)[C@@H](O)[C@H](O)O[C@@H]2CO)[C@H](O)[C@@H](O)[C@@H]1O` [Maltose], “does not act on”. Regarding `OC[C@H]1O[C@H](OC[C@H]2O[C@H](O[C@]3(CO)O[C@H](CO)[C@@H](O)[C@@H]3O)[C@H](O)[C@@H](O)[C@@H]2O)[C@H](O)[C@@H](O)[C@H]1O` [Raffinose], the “Action of the enzyme on the substrate” value is recorded as “acts on”. For `OC[C@H]1O[C@@](CO)(O[C@H]2O[C@H](CO)[C@@H](O[C@H]3O[C@H](CO)[C@@H](O)[C@H](O)[C@H]3O)[C@H](O)[C@H]2O)[C@@H](O)[C@@H]1O` [erlose], the “Action of the enzyme on the substrate” value is given as “acts on”. Turning to `OC[C@H]1O[C@@H](O[C@H]2[C@H](O)[C@@H](O)[C@@H](O[C@]3(CO)O[C@H](CO)[C@@H](O)[C@@H]3O)O[C@@H]2CO)[C@H](O)[C@@H](O)[C@H]1O` [lactosucrose], the “Action of the enzyme on the substrate” value is given as “acts on”. Same read-out and setting: the result for `OC[C@H]1O[C@H](OC[C@H]2O[C@H](OC[C@H]3O[C@H](O[C@]4(CO)O[C@H](CO)[C@@H](O)[C@@H]4O)[C@H](O)[C@@H](O)[C@@H]3O)[C@H](O)[C@@H](O)[C@H]2O)[C@H](O)[C@@H](O)[C@H]1O` [stachyose] reads “acts on”; that for `OC[C@H]1O[C@@](CO)(O[C@H]2O[C@H](CO)[C@@H](O)[C@H](O)[C@H]2O)[C@@H](O)[C@@H]1O` [sucrose], “acts on”. `OC[C@H]1O[C@@](CO)(O[C@H]2OC[C@@H](O)[C@H](O)[C@H]2O)[C@@H](O)[C@@H]1O` [xylofructoside]: the “Action of the enzyme on the substrate” value is “acts on”. As for inulin, the “Action of the enzyme on the substrate” value is listed as “does not act on”. Consider laevan, for which the “Action of the enzyme on the substrate” value is recorded as “does not act on”.

The next data set has as its system β-fructofuranosidase. Put plainly: Acceptor specificity (TLC, sucrose as donor). The settings on record: summary of Table 1. Type of data set: biochemical, Bacillus sp. V230 (FERM BP-5054). As for the experimental part: A saccharide solution with a final concentration of 10%, which consists of one of the monosaccharides, oligosaccharides, and alcohols in Table 1, and an equal amount of sucrose as a donor, d.s.b., was mixed with 2 units/g sucrose of a purified β-fructofuranosidase obtained by the method in Experiment 2, and allowed to react enzymatically at 40° C. and pH 5.5 for 24 hours. The mixtures before the enzymatic reaction and the reaction mixtures after the enzymatic reaction were subjected to TLC similarly as in Experiment 4, and the saccharides were colored by spraying 0.5-N phosphoric acid containing 0.2 w/v % naphthoresorcinol and heating at 110° C. for about 5 min to check the formation of transferred saccharides.
Take `OC[C@H]1O[C@@H](O[C@H]2[C@H](O)[C@@H](O)C(O)O[C@@H]2CO)[C@H](O)[C@@H](O)[C@@H]1O` (some centres unmarked) [Cellobiose]: the “Transfer of fructosyl residue to the acceptor (in words)” value (from here on “Transfer of fructosyl residue”) was “effectively transfers”. Consider `O=C[C@H](O)[C@@H](O)[C@@H](O)[C@H](O)CO` [D-Galactose], for which the “Transfer of fructosyl residue” value was “effectively transfers”. For `OC[C@@H](O)[C@@H](O)[C@H](O)[C@@H](O)CO` [D-Sorbitol], the “Transfer of fructosyl residue” value is “effectively transfers”. `OC[C@@H](O)[C@H](O)[C@@H](O)CO` [D-Xylitol]: the “Transfer of fructosyl residue” value is recorded as “effectively transfers”.

Take `O=C[C@H](O)[C@@H](O)[C@H](O)CO` [D-Xylose]: the “Transfer of fructosyl residue” value is recorded as “effectively transfers”. In the case of `OCCO` [Ethylene glycol], the “Transfer of fructosyl residue” value was “effectively transfers”.

For the molecule `OCC(O)CO` [Glycerol], the “Transfer of fructosyl residue” value is recorded as “effectively transfers”. With `OC[C@H]1O[C@H](OC[C@H]2OC(O)[C@H](O)[C@@H](O)[C@@H]2O)[C@H](O)[C@@H](O)[C@@H]1O` (some centres unmarked) [Isomaltose], the “Transfer of fructosyl residue” value was “effectively transfers”.

As to `OC[C@H]1O[C@@H](O[C@H]2[C@H](O)[C@@H](O)C(O)O[C@@H]2CO)[C@H](O)[C@@H](O)[C@H]1O` (some centres unmarked) [Lactose], the “Transfer of fructosyl residue” value is reported as “effectively transfers”. Same read-out and setting: the result for `OC[C@@H](O)[C@@H](O[C@H]1O[C@H](CO)[C@@H](O)[C@H](O)[C@H]1O)[C@H](O)[C@@H](O)CO` [Maltitol] reads “effectively transfers”. As for `OC[C@H]1O[C@H](O[C@H]2[C@H](O)[C@@H](O)[C@H](O)O[C@@H]2CO)[C@H](O)[C@@H](O)[C@@H]1O` [Maltose], the “Transfer of fructosyl residue” value is given as “effectively transfers”. As to `OC[C@H]1O[C@H](O[C@H]2[C@H](O)[C@@H](O)[C@@H](O[C@H]3[C@H](O)[C@@H](O)C(O)O[C@@H]3CO)O[C@@H]2CO)[C@H](O)[C@@H](O)[C@@H]1O` (some centres unmarked) [Maltotriose], the “Transfer of fructosyl residue” value is on record as “effectively transfers”. With `OC[C@H]1O[C@H](OC[C@H]2OC(O)[C@H](O)[C@@H](O)[C@@H]2O)[C@H](O)[C@@H](O)[C@H]1O` (some centres unmarked) [Melibiose], the “Transfer of fructosyl residue” value was “effectively transfers”. As to `OC[C@H]1O[C@H](OC[C@H]2O[C@H](O[C@H]3[C@H](O)[C@@H](O)C(O)O[C@@H]3CO)[C@H](O)[C@@H](O)[C@@H]2O)[C@H](O)[C@@H](O)[C@@H]1O` (some centres unmarked) [Panose], the “Transfer of fructosyl residue” value was “effectively transfers”.

Regarding `OC[C@H]1O[C@H](O[C@H]2O[C@H](CO)[C@@H](O)[C@H](O)[C@H]2O)[C@H](O)[C@@H](O)[C@@H]1O` [Trehalose], the “Transfer of fructosyl residue” value is “effectively transfers”.

Another data set relates to dd-strain mice. Put plainly: Acute toxicity test, oral. To be noted: 7-week-old dd-strain mice. The data set is classed as in vivo. As for the experimental part:
Using 7-week-old dd-strain mice, a powder rich in lactosucrose, obtained by the method in Example A-4 described later, was administered orally to the mice for acute toxicity test. No mouse died up to a dose of 15 g/kg mouse, and a higher dose test was impossible. […] Similarly as above, a powder rich in erlose obtained by the method in Example A-6 described later, a syrup rich in xylosylfructoside obtained by the method in Example A-8 described later, a syrup rich in fructosyltrehalose obtained by the method in Example A-11, or a syrup rich in isomaltosylfructoside obtained by the method in Example A-12 described later was orally administered to 7-week-old dd-strain mice for acute toxicity test. No mouse died up to a dose of 15 g/kg mouse, and a higher does test was impossible.
As for `OC[C@H]1O[C@@H](O[C@H]2[C@H](O)[C@@H](O)[C@@H](O[C@]3(CO)O[C@H](CO)[C@@H](O)[C@@H]3O)O[C@@H]2CO)[C@H](O)[C@@H](O)[C@H]1O` [lactosucrose], the “Toxicity (in words)” value is given as “relatively low in toxicity”.

For the origin of these results see patent US5952204A, “β-fructofuranosidase, its preparation and uses” (priority 1995, dated 1999).
